Tests used:
Format in all cases: in vivo
Setaria viridis = assay: Post-emergence test; conditions: 2-4 weeks after treatment
Procedure: (§1) To evaluate their herbicidal activity, compounds according to the invention are tested using a representative range of plants: SETVI Setaria viridis [table] […] These acetone solutions are diluted with water and the resulting formulations applied at dosage levels equivalent of about 0.1 to 0. 4 kg per hectare of test compound per pot. After spraying the plants are placed on greenhouse benches and are cared for in the usual manner, commensurate with conventional greenhouse practices. From 2 to 4 weeks after treatment, the seedling plants are examined and rated according to the rating system provided above.

Echinochloa crus-galli = assay: Post-emergence test; conditions: 2-4 weeks after treatment
Procedure: as §1, with “ECHCG Echinochloa crus-galli” for “SETVI Setaria viridis”

soybeans, wheat = assay: Crop selectivity in pre- and post-emergence application; conditions: dose of 0.1 kg/ha
Procedure: (§2) The pre-emergence tests involve spraying a liquid formulation of the compound onto the soil in which the seeds of the plant species mentioned above has recently been sown. The soil used in the tests is a prepared horticultural loam. The formulations used in the tests are prepared from solutions of the test compounds in acetone containing 0.4% by weight of an alkylphenol/ethylene oxide condensate available under the trade mark TRITON X-155. These acetone solutions are diluted with water and the resulting formulations applied at dosage levels corresponding to 0.025 kg, 0.100 kg or 0.400 kg of active material per hectare in a volume equivalent to 900 litres per hectare. In these tests untreated sown soil are used as controls. […] These acetone solutions are diluted with water and the resulting formulations applied at dosage levels equivalent of about 0.1 to 0. 4 kg per hectare of test compound per pot. After spraying the plants are placed on greenhouse benches and are cared for in the usual manner, commensurate with conventional greenhouse practices. From 2 to 4 weeks after treatment, the seedling plants are examined and rated according to the rating system provided above.

weeds = assay: Overall weed control in pre- and post-emergence application; conditions: dose of 0.1 kg/ha
Procedure: as §2

Stellaria media = assay: Post-emergence test; conditions: 2-4 weeks after treatment
Procedure: as §1, with “STEME Stellaria media” for “SETVI Setaria viridis”

Hordeum vulgare = assay: Post-emergence test; conditions: 2-4 weeks after treatment
Procedure: as §1, with “HORVW Hordeum vulgare” for “SETVI Setaria viridis”

Abutilon theophrasti = assay: Pre-emergence test; conditions: 3 weeks after treatment
Procedure: (§3) To evaluate their herbicidal activity, compounds according to the invention are tested using a representative range of plants: ABUTH Abutilon theophrasti The pre-emergence tests involve spraying a liquid formulation of the compound onto the soil in which the seeds of the plant species mentioned above has recently been sown. The soil used in the tests is a prepared horticultural loam. The formulations used in the tests are prepared from solutions of the test compounds in acetone containing 0.4% by weight of an alkylphenol/ethylene oxide condensate available under the trade mark TRITON X-155. These acetone solutions are diluted with water and the resulting formulations applied at dosage levels corresponding to 0.025 kg, 0.100 kg or 0.400 kg of active material per hectare in a volume equivalent to 900 litres per hectare. In these tests untreated sown soil are used as controls. From 2 to 4 weeks after treatment, the tests are terminated and each pot is examined and rated according to the rating system set forth below: [table]

Ipomoea hederacea = assay: Post-emergence test; conditions: 2-4 weeks after treatment
Procedure: as §1, with “IPHOE Ipomoea hederacea” for “SETVI Setaria viridis”

Triticum aestivum [1] = assay: Post-emergence test; conditions: 2-4 weeks after treatment
Procedure: as §1, with “TRZAW Triticum aestivum” for “SETVI Setaria viridis”

Triticum aestivum [2] = assay: Pre-emergence test; conditions: 3 weeks after treatment
Procedure: as §3, with “TRZAW Triticum aestivum” for “ABUTH Abutilon theophrasti”

Row | Compound | SETVI herbicidal rating (Setaria viridis; 0.1 kg/ha) | SETVI herbicidal rating (Setaria viridis; 0.4 kg/ha) | ECHCG herbicidal rating (Echinochloa crus-galli; 0.1 kg/ha) | ECHCG herbicidal rating (Echinochloa crus-galli; 0.4 kg/ha) | tolerance in soybeans and wheat (soybeans, wheat) | overall levels of weed control (weeds) | STEME herbicidal rating (Stellaria media; 0.1 kg/ha) | STEME herbicidal rating (Stellaria media; 0.4 kg/ha) | HORVW herbicidal rating (Hordeum vulgare; 0.1 kg/ha) | HORVW herbicidal rating (Hordeum vulgare; 0.4 kg/ha) | ABUTH herbicidal rating (Abutilon theophrasti; 0.025 kg/ha) | ABUTH herbicidal rating (Abutilon theophrasti; 0.100 kg/ha) | ABUTH herbicidal rating (Abutilon theophrasti; 0.400 kg/ha) | IPOHE herbicidal rating (Ipomoea hederacea; 0.1 kg/ha) | IPOHE herbicidal rating (Ipomoea hederacea; 0.4 kg/ha) | TRZAW herbicidal rating (Triticum aestivum [1]; 0.1 kg/ha) | TRZAW herbicidal rating (Triticum aestivum [1]; 0.4 kg/ha) | TRZAW herbicidal rating (Triticum aestivum [2]; 0.025 kg/ha) | TRZAW herbicidal rating (Triticum aestivum [2]; 0.100 kg/ha) | TRZAW herbicidal rating (Triticum aestivum [2]; 0.400 kg/ha)
1 | Cc1cnc(-c2cc(C(F)(F)F)nn2C)nc1Oc1cc(C(F)(F)F)nn1C [Example 4, 2-(1-Methyl-3-trifluoromethylpyrazol-5-yl)-6-(1-methyl-3-trifluoromethylpyrazol-5-yloxy)-5-methylpyrimidine] | 9 (9 - Complete kill) | 9 (9 - Complete kill) | 8 (8 - Approaching complete kill) | 8 (8 - Approaching complete kill) | well tolerated | good overall levels of weed control | 5 (5 - Definite injury) | 6 (6 - Herbicidal effect) | 3 (3 - Moderate effect) | 5 (5 - Definite injury) | 4 (4 - Injury) | 7 (7 - Good herbicidal effect) | 9 (9 - Complete kill) | 9 (9 - Complete kill) | 9 (9 - Complete kill) | 3 (3 - Moderate effect) | 5 (5 - Definite injury) | 1 (1 - Trace effect) | 2 (2 - Slight effect) | 4 (4 - Injury)
2 | Cc1cc(Oc2cccc(C(F)(F)F)c2)nc(-c2cc(C(F)(F)F)nn2C)c1 [Example 63] | 3 (3 - Moderate effect) | 6 (6 - Herbicidal effect) | 3 (3 - Moderate effect) | 3 (3 - Moderate effect) | – | – | – | – | 3 (3 - Moderate effect) | 3 (3 - Moderate effect) | – | 0 (0 - No effect) | 2 (2 - Slight effect) | 8 (8 - Approaching complete kill) | 8 (8 - Approaching complete kill) | 3 (3 - Moderate effect) | 3 (3 - Moderate effect) | 0 (0 - No effect) | 0 (0 - No effect) | 0 (0 - No effect)
3 | Cn1nc(C(F)(F)F)cc1Oc1cc(C#N)cc(-c2cc(C(F)(F)F)nn2C)n1 [Example 3, 4-Cyano-2-(1-methyl-3-trifluoromethylpyrazol-5-yloxy)-6-(1-methyl-3-trifluoromethylpyrazol-5-yl)pyridine] | 5 (5 - Definite injury) | 7 (7 - Good herbicidal effect) | 4 (4 - Injury) | 4 (4 - Injury) | well tolerated | good overall levels of weed control | – | – | 3 (3 - Moderate effect) | 5 (5 - Definite injury) | 1 (1 - Trace effect) | 5 (5 - Definite injury) | 8 (8 - Approaching complete kill) | 6 (6 - Herbicidal effect) | 8 (8 - Approaching complete kill) | 3 (3 - Moderate effect) | 4 (4 - Injury) | 0 (0 - No effect) | 0 (0 - No effect) | 4 (4 - Injury)

From US6528456B2, “Herbicidal 2-pyrazolyl-6-aryloxypyri(mi)dines” (BASF Aktiengesellschaft, priority 1999, dated 2003)
